Results from EP4745137A1 (Gluetacs Therapeutics (Shanghai) Co., Ltd., priority 2023, dated 2025).
pIC50: −log10 of the molar value.

How the values were obtained:
GSPT1 = target: T1, GSPT1 (Homo sapiens, UniProt P15170+Q96SW2); experiment: Western-blot assay of substrate protein degradation in hPBMCs, GSPT1; assay type: cell-based; settings: 24 hours of compound treatment
T1 construct: endogenous in cells; host or cells: hPBMCs (Milecell Biotechnologies)

IKZF3 = target: T2, IKZF3 (Homo sapiens, UniProt Q96SW2+Q9UKT9); experiment: Western-blot assay of substrate protein degradation in hPBMCs, IKZF3; assay type: cell-based; settings: 24 hours of compound treatment
T2 construct: endogenous in cells; host or cells: hPBMCs (Milecell Biotechnologies)
T2 sequence (Q9UKT9 whole entry): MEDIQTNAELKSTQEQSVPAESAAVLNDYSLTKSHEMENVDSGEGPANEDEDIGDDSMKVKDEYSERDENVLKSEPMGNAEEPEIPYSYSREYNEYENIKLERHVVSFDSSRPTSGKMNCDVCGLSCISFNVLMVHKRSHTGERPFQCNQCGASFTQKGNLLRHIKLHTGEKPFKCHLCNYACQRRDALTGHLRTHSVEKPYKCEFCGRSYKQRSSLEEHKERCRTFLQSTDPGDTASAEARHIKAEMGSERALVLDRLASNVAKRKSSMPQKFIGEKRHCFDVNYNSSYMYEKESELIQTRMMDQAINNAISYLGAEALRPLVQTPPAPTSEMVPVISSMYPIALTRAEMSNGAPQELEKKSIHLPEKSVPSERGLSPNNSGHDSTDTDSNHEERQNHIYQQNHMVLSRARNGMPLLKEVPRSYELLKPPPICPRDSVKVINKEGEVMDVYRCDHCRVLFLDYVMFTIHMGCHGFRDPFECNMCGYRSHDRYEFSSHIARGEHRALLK
T2 sequence (Q96SW2 whole entry): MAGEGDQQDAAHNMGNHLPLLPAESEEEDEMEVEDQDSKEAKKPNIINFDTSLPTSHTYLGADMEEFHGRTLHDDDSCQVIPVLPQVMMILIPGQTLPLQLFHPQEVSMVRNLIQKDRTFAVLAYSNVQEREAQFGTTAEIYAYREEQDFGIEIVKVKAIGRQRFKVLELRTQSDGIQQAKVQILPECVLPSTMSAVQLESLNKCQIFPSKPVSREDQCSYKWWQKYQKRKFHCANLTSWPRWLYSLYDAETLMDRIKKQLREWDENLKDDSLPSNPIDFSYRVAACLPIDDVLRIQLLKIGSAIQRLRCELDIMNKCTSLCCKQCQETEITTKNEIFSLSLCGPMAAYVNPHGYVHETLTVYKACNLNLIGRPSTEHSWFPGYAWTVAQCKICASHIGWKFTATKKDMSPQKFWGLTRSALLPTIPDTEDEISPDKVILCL
T2 sequence (Q16531 whole entry partner): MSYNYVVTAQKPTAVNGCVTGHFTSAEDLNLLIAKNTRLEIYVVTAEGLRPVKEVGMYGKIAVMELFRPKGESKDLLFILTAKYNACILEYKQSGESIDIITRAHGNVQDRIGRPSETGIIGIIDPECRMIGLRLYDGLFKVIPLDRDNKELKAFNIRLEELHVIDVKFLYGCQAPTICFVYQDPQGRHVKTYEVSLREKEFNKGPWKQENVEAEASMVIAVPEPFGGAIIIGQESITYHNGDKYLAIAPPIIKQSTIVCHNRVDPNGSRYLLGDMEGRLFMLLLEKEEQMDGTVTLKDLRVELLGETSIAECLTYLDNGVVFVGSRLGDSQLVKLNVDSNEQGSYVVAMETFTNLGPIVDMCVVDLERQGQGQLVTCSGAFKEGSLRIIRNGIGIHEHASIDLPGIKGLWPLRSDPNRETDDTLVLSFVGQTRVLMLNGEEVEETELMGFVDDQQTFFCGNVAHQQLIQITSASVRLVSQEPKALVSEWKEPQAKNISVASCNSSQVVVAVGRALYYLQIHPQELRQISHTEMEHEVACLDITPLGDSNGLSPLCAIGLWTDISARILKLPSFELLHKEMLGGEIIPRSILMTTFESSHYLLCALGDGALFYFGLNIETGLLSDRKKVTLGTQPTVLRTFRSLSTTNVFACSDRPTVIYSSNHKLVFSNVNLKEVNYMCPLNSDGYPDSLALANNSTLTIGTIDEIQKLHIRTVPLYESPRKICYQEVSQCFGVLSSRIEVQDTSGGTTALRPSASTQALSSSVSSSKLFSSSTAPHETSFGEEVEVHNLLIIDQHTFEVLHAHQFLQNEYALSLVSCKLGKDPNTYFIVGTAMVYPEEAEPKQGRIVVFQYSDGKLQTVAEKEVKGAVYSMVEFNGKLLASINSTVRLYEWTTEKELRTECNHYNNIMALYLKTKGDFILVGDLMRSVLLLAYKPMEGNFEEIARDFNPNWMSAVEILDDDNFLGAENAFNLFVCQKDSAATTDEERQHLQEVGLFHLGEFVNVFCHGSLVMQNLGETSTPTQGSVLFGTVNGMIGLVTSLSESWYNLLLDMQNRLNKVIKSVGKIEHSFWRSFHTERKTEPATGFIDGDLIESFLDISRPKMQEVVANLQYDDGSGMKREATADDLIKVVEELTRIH

IKZF2 = target: T3, IKZF2 (Homo sapiens, UniProt Q96SW2+Q9UKS7); experiment: Western-blot assay of substrate protein degradation in hPBMCs, IKZF2; assay type: cell-based; settings: 24 hours of compound treatment
T3 construct: endogenous in cells; host or cells: hPBMCs (Milecell Biotechnologies)
T3 sequence (Q9UKS7 whole entry): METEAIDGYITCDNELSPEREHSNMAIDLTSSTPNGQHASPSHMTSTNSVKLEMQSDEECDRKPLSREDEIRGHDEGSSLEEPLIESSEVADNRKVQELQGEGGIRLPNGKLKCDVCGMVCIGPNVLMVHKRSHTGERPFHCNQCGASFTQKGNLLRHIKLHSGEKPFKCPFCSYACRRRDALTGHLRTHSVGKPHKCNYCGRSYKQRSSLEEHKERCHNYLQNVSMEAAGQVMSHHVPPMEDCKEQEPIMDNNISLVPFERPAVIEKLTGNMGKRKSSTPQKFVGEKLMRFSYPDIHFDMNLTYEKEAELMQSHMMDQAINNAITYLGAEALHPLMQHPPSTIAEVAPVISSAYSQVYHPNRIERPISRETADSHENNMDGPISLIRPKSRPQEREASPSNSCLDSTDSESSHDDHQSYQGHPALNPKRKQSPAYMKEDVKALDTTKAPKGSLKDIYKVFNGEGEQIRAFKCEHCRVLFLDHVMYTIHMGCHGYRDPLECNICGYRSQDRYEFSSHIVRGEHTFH
T3 sequence (Q96SW2 whole entry): as the sequence (Q96SW2 whole entry) above
T3 sequence (Q16531 whole entry partner): as the sequence (Q16531 whole entry partner) above

IKZF1 = target: T4, IKZF1 (Homo sapiens, UniProt Q13422+Q96SW2); experiment: Western-blot assay of substrate protein degradation in hPBMCs, IKZF1; assay type: cell-based; settings: 24 hours of compound treatment
T4 construct: endogenous in cells; host or cells: hPBMCs (Milecell Biotechnologies)
T4 sequence (Q13422 whole entry): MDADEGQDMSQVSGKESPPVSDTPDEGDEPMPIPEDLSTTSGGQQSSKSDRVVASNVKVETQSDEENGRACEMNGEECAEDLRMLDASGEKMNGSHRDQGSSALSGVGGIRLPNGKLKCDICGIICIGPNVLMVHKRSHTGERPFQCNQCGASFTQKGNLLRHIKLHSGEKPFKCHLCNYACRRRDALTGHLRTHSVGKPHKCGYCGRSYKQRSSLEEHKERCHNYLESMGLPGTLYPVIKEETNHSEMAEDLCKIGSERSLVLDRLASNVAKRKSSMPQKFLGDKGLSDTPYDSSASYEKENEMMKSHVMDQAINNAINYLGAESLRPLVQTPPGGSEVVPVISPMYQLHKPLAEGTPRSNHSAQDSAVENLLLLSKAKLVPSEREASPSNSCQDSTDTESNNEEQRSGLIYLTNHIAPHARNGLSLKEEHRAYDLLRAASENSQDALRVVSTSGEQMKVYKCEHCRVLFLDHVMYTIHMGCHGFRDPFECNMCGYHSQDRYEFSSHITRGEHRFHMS
T4 sequence (Q96SW2 whole entry): as the sequence (Q96SW2 whole entry) above
T4 sequence (Q16531 whole entry partner): as the sequence (Q16531 whole entry partner) above

[1] = target: T5, human Cereblon WT GST-tagged protein (Homo sapiens, UniProt Q96SW2); experiment: CRBN-binding affinity by HTRF (CEREBLON BINDING kit); settings: HTRF inhibitory activity, CEREBLON BINDING kit; read-out: HTRF IC50
T5 construct: purchased CISBIO 64BDCRBNPEH
T5 sequence (Q96SW2 whole entry): as the sequence (Q96SW2 whole entry) above

CK1α = target: T6, CK1α (Homo sapiens, UniProt P48729+Q96SW2); experiment: Western-blot assay of substrate protein degradation in hPBMCs, CK1α; assay type: cell-based; settings: 24 hours of compound treatment
T6 construct: endogenous in cells; host or cells: hPBMCs (Milecell Biotechnologies)
T6 sequence (P48729 whole entry): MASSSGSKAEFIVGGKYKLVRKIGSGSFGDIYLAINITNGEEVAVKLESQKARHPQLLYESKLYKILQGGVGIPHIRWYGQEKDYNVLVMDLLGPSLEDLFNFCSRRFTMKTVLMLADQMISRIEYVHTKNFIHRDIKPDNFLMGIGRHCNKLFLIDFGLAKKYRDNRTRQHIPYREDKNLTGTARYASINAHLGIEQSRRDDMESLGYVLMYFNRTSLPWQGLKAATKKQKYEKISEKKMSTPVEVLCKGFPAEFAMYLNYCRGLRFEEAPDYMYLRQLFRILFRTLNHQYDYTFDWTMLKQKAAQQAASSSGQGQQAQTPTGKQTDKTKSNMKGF
T6 sequence (Q96SW2 whole entry): as the sequence (Q96SW2 whole entry) above
T6 sequence (Q16531 whole entry partner): as the sequence (Q16531 whole entry partner) above

WEE1 = target: T7, WEE1 (Homo sapiens, UniProt P30291+Q96SW2); experiment: Western-blot assay of substrate protein degradation in hPBMCs, WEE1; assay type: cell-based; settings: 24 hours of compound treatment
T7 construct: endogenous in cells; host or cells: hPBMCs (Milecell Biotechnologies)
T7 sequence (P30291 whole entry): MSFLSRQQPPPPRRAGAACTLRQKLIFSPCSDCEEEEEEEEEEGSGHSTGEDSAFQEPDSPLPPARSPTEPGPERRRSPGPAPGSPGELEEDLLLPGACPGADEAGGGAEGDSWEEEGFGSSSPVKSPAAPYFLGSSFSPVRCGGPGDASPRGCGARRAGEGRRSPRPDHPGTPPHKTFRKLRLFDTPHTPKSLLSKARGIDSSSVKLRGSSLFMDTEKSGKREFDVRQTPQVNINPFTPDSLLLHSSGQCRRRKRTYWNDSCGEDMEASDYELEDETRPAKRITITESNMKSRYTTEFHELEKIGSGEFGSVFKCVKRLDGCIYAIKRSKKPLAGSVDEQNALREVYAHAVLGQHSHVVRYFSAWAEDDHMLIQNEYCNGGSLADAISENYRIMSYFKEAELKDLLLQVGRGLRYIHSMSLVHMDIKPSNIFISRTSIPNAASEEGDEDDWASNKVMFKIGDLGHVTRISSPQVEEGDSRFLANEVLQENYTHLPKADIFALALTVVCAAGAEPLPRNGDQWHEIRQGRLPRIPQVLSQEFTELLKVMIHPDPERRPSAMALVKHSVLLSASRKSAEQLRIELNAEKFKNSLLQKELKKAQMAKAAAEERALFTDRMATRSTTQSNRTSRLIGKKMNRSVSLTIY
T7 sequence (Q96SW2 whole entry): as the sequence (Q96SW2 whole entry) above
T7 sequence (Q16531 whole entry partner): as the sequence (Q16531 whole entry partner) above

[2] = 50 nM and 500 nM tested (concentration behind the class not stated)
[3] = compounds tested at 50 nM and 500 nM (concentration of the table not stated)

Row | Compound | pIC50 [1] | GSPT1 substrate protein remaining % (GSPT1; [2]) | IKZF3 substrate protein remaining % (IKZF3; [2]) | IKZF2 substrate protein remaining % (IKZF2; [2]) | IKZF 1 substrate protein remaining % (IKZF1; [2]) | CK1a substrate protein remaining % (CK1α; [2]) | Weel substrate protein remaining % (WEE1; [2]) | GSPT1 substrate protein remaining % (GSPT1; [3]) | IKZF3 substrate protein remaining % (IKZF3; [3]) | IKZF2 substrate protein remaining % (IKZF2; [3]) | IKZF 1 substrate protein remaining % (IKZF1; [3]) | CK1a substrate protein remaining % (CK1α; [3]) | Weel substrate protein remaining % (WEE1; [3])
1 | O=C1CCC(N2Cc3cc(CN4CCC(c5ccnc(F)c5F)CC4)ccc3C2=O)C(=O)N1 (stereo not drawn) [GT-04556, 3-(5-((4-(2,3-difluoropyridin-4-yl)piperidin-1-yl)methyl)-1-oxoisoindolin-2-yl)piperidine-2,6-dione] | 6.00 to 6.30 | – | – | – | – | – | – | A (0% ≤ substrate protein remaining % ≤ 80%) | A (0% ≤ substrate protein remaining % ≤ 80%) | A (0% ≤ substrate protein remaining % ≤ 80%) | A (0% ≤ substrate protein remaining % ≤ 80%) | A (0% ≤ substrate protein remaining % ≤ 80%) | A (0% ≤ substrate protein remaining % ≤ 80%)
2 | O=C1CCC(N2Cc3cc(CN4CCN(c5ccc(C(F)(F)F)cc5)CC4)ccc3C2=O)C(=O)N1 (stereo not drawn) [GT-04451, 3-(1-oxo-5-((4-(4-(trifluoromethyl)phenyl)piperazin-1-yl)methyl)isoindolin-2-yl)piperidine-2,6-dione] | 5.82 to 6.00 | – | – | – | – | – | – | A (0% ≤ substrate protein remaining % ≤ 80%) | B (80%< substrate protein remaining %≤ 100%) | B (80%< substrate protein remaining %≤ 100%) | B (80%< substrate protein remaining %≤ 100%) | B (80%< substrate protein remaining %≤ 100%) | B (80%< substrate protein remaining %≤ 100%)
3 | O=C1CCC(N2Cc3cc(CN4CCN(c5ncccc5F)CC4)ccc3C2=O)C(=O)N1 (stereo not drawn) [GT-04578, 3-(5-((4-(3-fluoropyridin-2-yl)piperazin-1-yl)methyl)-1-oxoisoindolin-2-yl)piperidine-2,6-dione] | 5.82 to 6.00 | – | – | – | – | – | – | A (0% ≤ substrate protein remaining % ≤ 80%) | B (80%< substrate protein remaining %≤ 100%) | A (0% ≤ substrate protein remaining % ≤ 80%) | B (80%< substrate protein remaining %≤ 100%) | A (0% ≤ substrate protein remaining % ≤ 80%) | B (80%< substrate protein remaining %≤ 100%)
4 | O=C1CCC(N2Cc3cc(CN4CCN(c5ccncc5Br)CC4)ccc3C2=O)C(=O)N1 (stereo not drawn) [GT-04580, 3-(5-((4-(3-bromopyridin-4-yl)piperazin-1-yl)methyl)-1-oxoisoindolin-2-yl)piperidine-2,6-dione] | 6.00 to 6.30 | – | – | – | – | – | – | B (80%< substrate protein remaining %≤ 100%) | A (0% ≤ substrate protein remaining % ≤ 80%) | A (0% ≤ substrate protein remaining % ≤ 80%) | A (0% ≤ substrate protein remaining % ≤ 80%) | A (0% ≤ substrate protein remaining % ≤ 80%) | A (0% ≤ substrate protein remaining % ≤ 80%)
5 | O=C1CCC(N2C(=O)c3ccc(CN4CC=C(c5c[nH]c6cc(F)ccc56)CC4)cc3C2=O)C(=O)N1 (stereo not drawn) [GT-06634, 2-(2,6-dioxopiperidin-3-yl)-5-((4-(6-fluoro-1H-indol-3-yl)-3,6-dihydropyridin-1(2H)-yl)methyl)isoindoline-1,3-dione] | 6.00 to 6.30 | A (0% ≤ substrate protein remaining % ≤ 80%) | A (0% ≤ substrate protein remaining % ≤ 80%) | A (0% ≤ substrate protein remaining % ≤ 80%) | B (80%< substrate protein remaining %≤ 100%) | A (0% ≤ substrate protein remaining % ≤ 80%) | A (0% ≤ substrate protein remaining % ≤ 80%) | – | – | – | – | – | –
6 | Cc1ccc(C2=CCN(Cc3ccc4c(c3)C(=O)N(C3CCC(=O)NC3=O)C4=O)CC2)s1 (stereo not drawn) [GT-06220, 2-(2,6-dioxopiperidin-3-yl)-5-((4-(5-methylthiophen-2-yl)-3,6-dihydropyridin-1(2H)-yl)methyl)isoindoline-1,3-dione] | 5.72 to 5.82 | A (0% ≤ substrate protein remaining % ≤ 80%) | A (0% ≤ substrate protein remaining % ≤ 80%) | A (0% ≤ substrate protein remaining % ≤ 80%) | A (0% ≤ substrate protein remaining % ≤ 80%) | A (0% ≤ substrate protein remaining % ≤ 80%) | A (0% ≤ substrate protein remaining % ≤ 80%) | – | – | – | – | – | –

Second part, led by results:

Row | pIC50 [1] | Compound | GSPT1 substrate protein remaining % (GSPT1; [2]) | IKZF3 substrate protein remaining % (IKZF3; [2]) | IKZF2 substrate protein remaining % (IKZF2; [2]) | IKZF 1 substrate protein remaining % (IKZF1; [2]) | CK1a substrate protein remaining % (CK1α; [2]) | Weel substrate protein remaining % (WEE1; [2]) | GSPT1 substrate protein remaining % (GSPT1; [3]) | IKZF3 substrate protein remaining % (IKZF3; [3]) | IKZF2 substrate protein remaining % (IKZF2; [3]) | IKZF 1 substrate protein remaining % (IKZF1; [3]) | CK1a substrate protein remaining % (CK1α; [3]) | Weel substrate protein remaining % (WEE1; [3])
7 | 5.72 to 5.82 | O=C1CCC(N2C(=O)c3ccc(CN4CCC(c5ncnc6sc7c(c56)CCC7)CC4)cc3C2=O)C(=O)N1 (stereo not drawn) [GT-06650, 5-((4-(6,7-dihydro-5H-cyclopenta[4,5]thieno[2,3-d]pyrimidin-4-yl)piperidin-1-yl)methyl)-2-(2,6-dioxopiperidin-3-yl)isoindoline-1,3-dione] | B (80%< substrate protein remaining %≤ 100%) | B (80%< substrate protein remaining %≤ 100%) | B (80%< substrate protein remaining %≤ 100%) | B (80%< substrate protein remaining %≤ 100%) | B (80%< substrate protein remaining %≤ 100%) | A (0% ≤ substrate protein remaining % ≤ 80%) | – | – | – | – | – | –
8 | > 6.30 | Cc1nc(C2CCN(Cc3ccc4c(c3)CN(C3CCC(=O)NC3=O)C4=O)CC2)c2c3c(sc2n1)CCCC3 (stereo not drawn) [GT-04993, 3-(5-((4-(2-methyl-5,6,7,8-tetrahydrobenzo[4,5]thieno[2,3-d]pyrimidin-4-yl)piperidin-1-yl)methyl)-1-oxoisoindolin-2-yl)piperidine-2,6-dione] | – | – | – | – | – | – | A (0% ≤ substrate protein remaining % ≤ 80%) | A (0% ≤ substrate protein remaining % ≤ 80%) | A (0% ≤ substrate protein remaining % ≤ 80%) | A (0% ≤ substrate protein remaining % ≤ 80%) | A (0% ≤ substrate protein remaining % ≤ 80%) | A (0% ≤ substrate protein remaining % ≤ 80%)
9 | 5.72 to 5.82 | Cc1nc(C2=CCN(Cc3ccc4c(c3)C(=O)N(C3CCC(=O)NC3=O)C4=O)CC2)c2c3c(sc2n1)CCC3 (stereo not drawn) [GT-06682, 2-(2,6-dioxopiperidin-3-yl)-5-((4-(2-methyl-6,7-dihydro-5H-cyclopenta[4,5]thieno[2,3-d]pyrimidin-4-yl)-3,6-dihydropyridin-1(2H)-yl)methyl)isoindoline-1,3-dione] | A (0% ≤ substrate protein remaining % ≤ 80%) | A (0% ≤ substrate protein remaining % ≤ 80%) | A (0% ≤ substrate protein remaining % ≤ 80%) | B (80%< substrate protein remaining %≤ 100%) | B (80%< substrate protein remaining %≤ 100%) | A (0% ≤ substrate protein remaining % ≤ 80%) | – | – | – | – | – | –
